Source: patent publication US20240383973A1, “METHODS FOR TREATING CALCITONIN GENE-RELATED PEPTIDE (CGRP) - EXPRESSING CANCERS” (The Board of Regents of the University of Oklahoma, priority 2022, published 2024)
Entries after “also recorded” stand apart in the source; their conditions may differ.

Tests used:
[1] = tested on: Py230 murine mammary tumors; assay: Anti-CGRP/anti-PD-1 combination treatment effect on tumor volume and tumor regression; format: in vivo; details: treatment day 28-56, followed to day 70; 10 mice per group
Description: The anti-PD-1 compound is a rat IgG2a anti-mouse PD-1 antibody, clone RMP1-14, obtained from Bio X Cell. The CGRP inhibitor is olcegepant. The isotype control is a rat IgG2a, clone 2A3, raised against human CD25, obtained from Bio X Cell.
Mice were transplanted with Py230 murine mammary tumors in the mammary fat pad. 28 days after tumor implantation the drug treatments were initiated. Treatments were: (1) Mock—isotype control and vehicle control, (2) CGRP inhibitor+isotype control, (3) anti-PD-1+vehicle control, and (4) Combination: CGRP inhibitor+anti-PD-1. Treatments were terminated 56 days after transplantation. The anti-PD-1 compound was a rat IgG2a anti-mouse PD-1 antibody, clone RMP1-14, obtained from Bio X Cell, the CGRP inhibitor was olcegepant, and the isotype control was a rat IgG2a, clone 2A3, raised against human CD25, obtained from Bio X Cell. Tumor volume, as determined by caliper measurement, was measured every other day until day 70 post-transplant. Average tumor mass of 10 individuals across two experiments is depicted (FIG. 4). The results (FIG. 5) also indicated the numbers of mice in the 4 treatment groups that experienced either tumor progression (i.e., continual growth of tumor), tumor stagnation (cessation of growth for at least 3 weeks), or tumor regression (tumor no longer palpable) in each cohort. […]

[2] = tested on: Py230 triple negative breast cancer cell line; assay: Py230 tumor transplant in B6 mice, BIBN4096 vs DMSO: tumor growth and tumor mass; format: in vivo; details: vs DMSO mock
Description: (§1) B6 mice were transplanted with Py230 tumor cells in the 4th mammary fat pad. Beginning on Day 28 post-transplant, mice were either injected with the CGRP inhibitor BIBN4096 in DMSO (white) or DMSO alone (black). 63 days post-transplant, tumors were isolated and tumor mass (FIG. 2A) determined. Tumors were digested and the ratio of activated CD44^hi CD43^+CD8 T cells to FoxP3^+ Tregs determined (FIG. 2B). PD-1 expression on tumor-isolated CD8+ T cells was measured by flow cytometry (FIG. 2C). Symbols represent individual mice, composite of two experiments. *p<0.05, **p<0.01.
B6 mice were transplanted with Py230 triple negative breast cancer cell line, tumors were measured 3×/week for 63 days. BIBN4096 or DMSO vehicle control (mock) were administered 1×/week starting on day 28 over a period of 4 weeks. Tumor masses were measured at day 63. FIG. 10A. Tumor growth curves of BIBN4096 treated B6 mice and mock treated controls. FIG. 10B. Tumor masses of BIBN4096 treated mice and mock treated controls. (n=10/group), Mann-Whitney Test, *p<0.05.

[3] = tested on: tumor infiltrating T cells and B cells; assay: Flow cytometric analysis of tumor-isolated immune cells after BIBN4096 treatment; format: in vivo, mice; details: day 63, flow cytometry; vs mock
Description: as §1
B6 mice were transplanted with Py230 triple negative breast cancer cell line, tumors were measured 3×/week for 63 days. BIBN4096 or DMSO vehicle control (mock) were administered 1×/week starting on day 28 over a period of 4 weeks. Tumor was passed through a 70 µm cell strainer and single cell suspension was stained for flowcytometric analysis. FIG. 11A. BIBN4096 treated mice have a higher ratio of activated CD8^+ T cells to regulatory T cells (T reg) compared to the mock treated controls. FIG. 11B. […] FIG. 11C. […] FIG. 11D. Tumor infiltrating T cell subtypes at day 63 in BIBN4096 and mock treated controls. (n=15 group) Mann-Whitney Test, *p<0.05, **p<0.01, ****p<0.0001, n.s. not significant.

## NCCCC[C@H](NC(=O)[C@@H](Cc1cc(Br)c(O)c(Br)c1)NC(=O)N1CCC(N2Cc3ccccc3NC2=O)CC1)C(=O)N1CCN(c2ccncc2)CC1 [BIBN4096, Olcegepant]
[1]
  tumor progression (continual growth of tumor), share of tumors: most tumors continued to progress
  tumor stagnation (cessation of growth for at least 3 weeks), share of tumors: 30%
[2]; B6 mice, Py230, BIBN4096 1x/week from day 28 for 4 weeks, tumors measured for 63 days
  tumor growth: inhibits tumor growth; also recorded: stops growth of triple negative breast cancer
[2]; day 63 post-transplant
  tumor mass: decreases tumor mass
[3]
  PD-1 expression on activated CD8+ T cells from tumor: increased expression
  ratio of activated CD8+ T cells to regulatory T cells (Treg) in tumor: higher ratio
  tumor infiltrating B cells: increased infiltration; also recorded: enhances CD8+ T cell activation and tumor infiltrating B cells
